The record followed here is article PMC6930599, “Novel Flavonoid Glycosides of Quercetin from Leaves and Flowers of Gaiadendron punctatum G.Don. (Violeta de Campo), used by the Saraguro Community in Southern Ecuador, Inhibit α-Glucosidase Enzyme” (Molecules, 2019).

What all share (type): biochemical
Test [1] has as its target T1, α-glucosidase (Saccharomyces cerevisiae, Sigma G5003).
T1 construct: gene MAL12; commercial yeast enzyme preparation (Sigma)
As to the kind of experiment: p-nitrophenol release at […] nm, microplate. The conditions noted are these: PNPG (20 μL of 5 mM), PBS pH 7.4, 37 °C, 5 min pre-incubation; error is SE; read-out: α-Glucosidase IC50 (SE) (mg/mL, μM†).

Test [2] shares this target. Kind of test: p-nitrophenol release at […] nm, progress curves at several PNPG and inhibitor concentrations. The conditions noted are these: PNPG 1-15 mM, pH 7.4, 37 °C, unreliable: b44 prints another KI, Ki unit not printed (doses in μM).
Test [3] deals with T1, α-glucosidase (Saccharomyces cerevisiae, Sigma G5003). As to the kind of experiment: p-nitrophenol release at […] nm, initial PNPG varied. The conditions noted are these: no inhibitor; PBS pH 7.4, 37 °C; error is SE.

As to `C[C@@H]1O[C@@H](OC[C@H]2O[C@@H](Oc3c(-c4ccc(O)cc4)oc4cc(O)cc(O)c4c3=O)[C@H](O)[C@@H](O)[C@@H]2O)[C@H](O)[C@H](O)[C@H]1O` [compound 1, Nicotiflorin], in test [1], the IC50 came to 159 µM.
With `C[C@@H]1O[C@H](O[C@@H]2[C@@H](O)[C@H](O)[C@@H](COc3ccc(-c4oc5cc(O)cc(O)c5c(=O)c4O)cc3O)O[C@H]2O)[C@H](O)[C@H](O)[C@H]1O` [compound 4, quercetin-4’-O-(2-O-β-rhamno-pyranosyl-6-β-glucopyranoside)], in test [1], the IC50 amounted to 9.66 µM. The Ki in test [2] (competitive in table, non-competitive in abstract) is listed as 3.92 (1.48).
Turning to `C[C@@H]1O[C@H](OC[C@H]2O[C@@H](Oc3c(-c4ccc(O)c(O)c4)oc4cc(O)cc(O)c4c3=O)[C@H](O[C@H]3O[C@@H](C)[C@H](O)[C@@H](O)[C@H]3O)[C@@H](O)[C@@H]2O)[C@H](O)[C@H](O)[C@H]1O` [compound 5, quercetin-3-O-(2,6-di-O-β,β-rhamno-pyranosyl-β-glucopyranoside)], the IC50 in test [1] stood at 16.9 µM. The Ki in test [2] (non-competitive in table, competitive in abstract) is given as 12.29(1.58).
As to `O=[N+]([O-])c1ccc(O[C@H]2O[C@H](CO)[C@@H](O)[C@H](O)[C@H]2O)cc1` [p-Nitrophenyl-α-D-glucopyranoside], the Km (in general, the substrate concentration at which the rate is half of its maximum) in test [3] amounted to 986 µM.
